Measurements: patent publication US20240117303A1, “METHODS AND COMPOSITIONS FOR GENERATING HUMAN MIDBRAIN DOPAMINERGIC NEURONS FROM NEURAL PROGENITOR CELLS” (Trailhead Biosystems Inc., priority 2022, published 2024)
Entries after “also recorded” stand apart in the source; their conditions may differ.

Key:
[1] = test system: stage 1 neural stem cells; assay: HD-DoE 12-factor experiment for stage 2 recipe (first model, FIG. 5-7, 12); assay type: cell-based, human; details: for impact on expression of FOXA2 / impact on expression of LMX1A: dynamic profile / model, 12 effectors; for value of FOXA2 in absence of the factor: 10,000 with all factors; for value of LMX1A in absence of the factor: 30,000 with all factors
Description: To further guide the differentiation of midbrain-committed neural stem cells to neural progenitor cells at stage 2, we performed an additional HD-DoE experiment. We thereby obtained additional gene regulatory models that were used for preparation of differentiation protocol. The basis of this was a 12-factor HD-DoE experiment with focus on initiation of differentiation of cells toward midbrain neural progenitor cells for an additional 3 days after termination of stage 1 treatment. Here, we focused on expression of LMX1A and FOXA2 in neural progenitor cells with low to zero expression of GBX2. LMX1A had significant high expression level in the model with value of 47888. Therefore, we used optimization setting for this gene to identify the positive factors. The factors in this experiment included SC79, MK2206, ZM336372, PD0325901, CHIR99021, A 83-01, TTNPB, AGN193109, GW3965, SR9243, Purmorphamine and GSI-XX.
(§1) To assess the impact of elimination of each validated factor, we used dynamic profile analysis and compared the expression level of genes of interest in absence of each finalized factor while others are present.
(§2) In the stage 2 recipe, each of the six finalized factors were removed while the other five factors were present and the expression levels of FOXA2, LMX1A and GBX2 were assessed, compared to the levels in the presence of all factors. According to the first experiment model, the absence of TTNPB lead to a rise of GBX2 expression, while the value of FOXA2 and LMX1A reduced drastically from 10,000 to 0 and 30,000 to 15,000, respectively. The absence of A 83-01 reduced the expression of FOXA2 from 10,000 to 7000, however, as expected, the value of LMX1A increased from 30,000 to 40,000. […] According to the second experiment model, the absence of BMP7 and MK2206 both reduced the level of FOXA2 while increasing the value of LMX1A, with BMP7 as the main effector that led to 0 expression of FOXA2.

[2] = test system: stage 2 neural progenitors; assay: HD-DoE 12-factor model for stage 3 recipe (FIG. 19-23, 29); assay type: cell-based, human
Description: To develop the neuronal differentiation recipes, the impact of various agonist and antagonists (effectors) on maturation of MB neural progenitors was investigated using the HD-DoE method described in Example 1. These effectors were chosen based on available literature on developmental biology, differentiation of stem cells as well as mouse and human single cell RNA-seq data from midbrain neurons at the time.
To engineer the recipe of stage 3 of differentiation, cells were first cultured in the stage 1 and stage 2 media as described herein, then they were treated with combinations of 8 or 12 factors for 3 days and the gene expression of cells in each condition was modeled. To guide the cells towards a subtype of midbrain dopaminergic neurons that reside in Substantia Nigra pars compacta (SNc) region of the brain, neural progenitors need to be SOX6^+ (Pereira et al. (2021) Cell Rep. 37:109975 Oosterveen et al. (2021) Stem Cell Reports 16:2718-2735 Poulin et al. (2020) Trends Neurosci. 43:155-169). CORIN, NGN2 and MSX1 are other markers involved in neurogenesis of dopaminergic neurons originating from floorplate region of developing midbrain (Wang et al. (2020) Cells 9:1489; Samata et al. (2016) Nat Commun. 7:13097; Ono et al. (2007) Development 134:3213-3225; Prakash et al. (2006) J. Physiol. 575:403410).
Therefore, we focused on maximizing expression of SOX6, CORIN, NGN2 and MSX1 in modeling experiments. One of the 12-factor models, the results of which are shown in FIG. 19, including LDN193189, AGN193109, BMP7, TTNPB, PD0325901, A8301, MHY1485, CHIR99021, XAV939, SANT-1, Purmorphamine and MK2206, provided a combination set that could maximize expression level of CORIN to more than 2000.
To assess the impact of elimination of each validated factor identified in Example 5 for the stage 3 and stage 4 recipes, we used dynamic profile analysis and compared the expression level of genes of interest in absence of each finalized factor while others are present.
In the stage 3 recipe, each of the finalized factors were removed in their respective models while other factors were present and the expression level of genes of interest was assessed compared to presence of all factors. When AGN193109 was excluded, level of all CORIN, KCNJ6, MSX1 and SOX6 decreased from 900 to 450, 50 to 35, 140 to 110 and 105 to 60, respectively. […] When PD0325901 was removed, expression levels of CORIN and KCNJ6 increased to 1200 and 70 while levels of MSX1 and SOX6 decreased to 105 and 20. In the absence of CHIR99021, the expression level of CORIN was again increased to 1200 while the level of KCNJ6 and MSX1 dropped to 50 and 115. […] Therefore, it was decided to include this compound in the final recipe. […] Therefore, CHIR99021 was also included in the final recipe.

[3] = test system: stage 1 neural stem cells; assay: HD-DoE 12-factor experiment for stage 2 recipe (second model, FIG. 8-10, 13); assay type: cell-based, human; details: dynamic profile, 12 effectors
Description: To test additional factors like FGF8 that is routinely used in midbrain differentiation protocols, we ran another 12-factor experiment consisting of LDN193189, BMP7, A 83-01, Activin A, Takinib, PD0325901, MK2206, FGF8b, AZD3147, MHY1485, GSI-XX and Yhhu 3792. Similar to the previous experiment, hiPSCs were treated with stage 1 media for 3 days and then treated with 96 conditions of combinations of the factors for an additional 3 days. When this model was optimized for maximum expression of FOXA2, BMP7 with factor contribution of 13.7 and MK2206 with 14.2 had the most impact on its expression followed by AZD 3147 with factor contribution of 10.9.
as §1, §2

[4] = test system: human pluripotent stem cells; assay: HD-DoE 13-factor experiment for stage 1 recipe, gene expression modeled after 3-day treatment; dynamic profile and factor criticality analysis; assay type: cell-based; details: for impact on expression of FOXA2 / impact on expression of OTX2: 13 effectors; for expression level of LMX1A in absence of the factor / expression level of FOXA2 in absence of the factor / expression level of DMBX1 in absence of the factor / expression level of OTX2 in absence of the factor: stage 1 recipe, other four factors present; for expression level of LMX1A in absence of the factor: 300 with all five factors; for expression level of FOXA2 in absence of the factor: 600 with all five factors; for expression level of DMBX1 in absence of the factor: 3000 with all five factors; for expression level of OTX2 in absence of the factor: 12000 with all five factors
Description: This example utilizes a method of High-Dimensional Design of Experiments (HD-DoE), as previously described in Bukys et al. (2020) Iscience 23:101346. The method employs computerized design geometries to simultaneously test multiple process inputs and offers mathematical modeling of a deep effector/response space. The method allows for finding combinatorial signaling inputs that control a complex process, such as during cell differentiation. It allows testing of multiple plausible critical process parameters, as such parameters impact output responses, such as gene expression. Because gene expression provides hallmark features of the phenotype of, for example, a human cell, the method can be applied to identify, and understand, which signaling pathways control cell fate. In the current example, the HD-DOE method was applied with the intent to find conditions for induction of midbrain neural progenitor-expressed genes, directly from the pluripotent stem cell state.
To develop the recipe for each stage, the impact of agonists and antagonists of multiple signaling pathways (referred to herein as “effectors”) on the expression of two sets of 53 pre-selected genes after a 3-day treatment was tested and modeled. These effectors are small molecules or proteins that are commonly used during stepwise differentiation of stem cells to specific fates. The choice of the effectors to test was based on current literature on neural induction in the midbrain region of the developing brain and differentiation of stem cells to neural progenitors.
To test the effectors, experiments with at least 8 factors were designed that can assess the response of cells to 48 or more different combinations of effectors in a range of concentrations. To analyze the models, we focused on expression of genes expressed in the midbrain region, including OTX2, DMBX1, FOXA2, LMX1A, and on the absence of GBX2, which is a hindbrain marker. The impact of each effector on gene expression level is defined by a parameter called factor contribution that is calculated for each effector during the modeling.
To identify the recipe of stage 1 of differentiation, cells were treated with various effectors for 3 days and the gene expression of cells was modeled. […] This model consisted of 13 factors including LDN193189, PD173074, BLU9931, Purmorphamine, SC79, MK2206, ZM336372, PD0325901, CHIR99021, XAV939, UCLA-gp130, Tofacitinib and GO 6983.
as §1
In the stage 1 recipe, each of the five finalized factors were removed while the other four factors were present and the expression levels of OTX2, DMBX1, FOXA2 and LMX1A was assessed compared to the levels in the presence of all five factors (FIG. 11A-B). […] Expression level of DMBX1 increased in absence of LDN193189, however values of OTX2, FOXA2 and LMX1A decreased.

[5] = model optimized for maximum expression of FOXA2, positive impact
[6] = stage 2 recipe, first experiment model
[7] = model optimized for LMX1A, positive impact
[8] = model maximizing expression of CORIN, positive regulatory impact
[9] = model optimized for maximum expression of FOXA2, positive effect
[10] = model optimized for MSX1, negative regulatory effect
[11] = Purmorphamine added to the original 4 effectors, dynamic profile
[12] = model maximizing expression of CORIN, negative impact
[13] = model optimized for SOX6, negative impact

## Cc1cccc(-c2nn(C(=S)Nc3ccccc3)cc2-c2ccnc3ccccc23)n1 [A 83-01]
[1]; addition of A 83-01 at 300 nM, dynamic profile
  level of GBX2: ~0
[1]
  impact on expression of FOXA2: positive impacts
[1]; [5]
  factor contribution: 6.7
[1]; [6]
  value of FOXA2 in absence of the factor: 7000
  value of LMX1A in absence of the factor: 40,000

## Cc1ccc(C2=CCC(C)(C)c3ccc(C#Cc4ccc(C(=O)O)cc4)cc32)cc1 [AGN193109]
[1]; [7]
  factor contribution: < 1
[2]; dynamic profile, 12 effectors
  impact on expression of KCNJ6: positive impact
[2]; [8]
  factor contribution: 20.3
[2]; model optimized for maximum expression of KCNJ6, positive regulators
  factor contribution: 17
[2]; model optimized for maximum expression of SOX6, positive impact
  factor contribution: 26.1
[2]; stage 3 recipe, other factors present, 50 with all factors
  expression level of KCNJ6 in absence of the factor: 35
[2]; stage 3 recipe, other factors present, 105 with all factors
  expression level of SOX6 in absence of the factor: 60
[2]; stage 3 recipe, other factors present, 140 with all factors
  expression level of MSX1 in absence of the factor: 110
[2]; stage 3 recipe, other factors present, 900 with all factors
  expression level of CORIN in absence of the factor: 450

## C[C@H](NC(=O)Cc1cc(F)cc(F)c1)C(=O)N[C@@H]1C(=O)N(C)c2ccccc2-c2ccccc21 [GSI-XX]
[3]
  impact on expression of FOXA2: did not make a meaningful positive change
  impact on expression of LMX1A: did not make a meaningful positive change

## O=C(O)Cc1cccc(OCCCN(Cc2cccc(C(F)(F)F)c2Cl)CC(c2ccccc2)c2ccccc2)c1 [GW3965]
[1]
  impact on expression of FOXA2: positive impact
  impact on expression of LMX1A: positive impact
[1]; [7]
  factor contribution: 5.4
[1]; [6]
  value of FOXA2 in absence of the factor: 17,000
  value of LMX1A in absence of the factor: 10,000

## c1ccc2c(-c3cnn4cc(-c5ccc(N6CCNCC6)cc5)cnc34)ccnc2c1 [LDN193189]
[4]; dynamic profile
  impact on expression of FOXA2: positive impact
  impact on expression of OTX2: positive impact
[4]; [9]
  factor contribution: 13.6
[4]; model optimized for maximum expression of OTX2, positive impact, 3-day treatment
  factor contribution: 11.9
[4]
  expression level of LMX1A in absence of the factor: decreased
  expression level of FOXA2 in absence of the factor: decreased
  expression level of DMBX1 in absence of the factor: increased
  expression level of OTX2 in absence of the factor: decreased
[2]; dynamic profile, 12 effectors
  impact on expression level of MSX1: high negative impact
[2]; [8]
  factor contribution: high positive factor contributions
[2]; [10]
  factor contribution: 19.9

## c1ccc2c(Oc3nc(Nc4ccc(N5CCOCC5)cc4)c4ncn(C5CCCCC5)c4n3)cccc2c1 [Purmorphamine]
[4]; OTX2-optimized setting
  impact on expression of DMBX1: did not have a positive impact
  impact on expression of LMX1A: did not have a positive impact
[4]; [11]
  expression level of DMBX1: 3000
  expression level of LMX1A: 450
  expression level of OTX2: 11000
[4]; dynamic profile
  impact on expression of FOXA2: positive impact
  impact on expression of OTX2: did not have a positive impact
[4]; [9]
  factor contribution: 22.2
[4]
  expression level of LMX1A in absence of the factor: beneficial
  expression level of FOXA2 in absence of the factor: reduction
  expression level of DMBX1 in absence of the factor: beneficial
  expression level of OTX2 in absence of the factor: beneficial
[1]
  impact on expression of FOXA2: positive effect; also recorded: positive impact
[1]; [5]
  factor contribution: 15.3
[1]; negative effect on LMX1A expression levels
  factor contribution: 26.2
[1]; without addition of Purmorphamine, dynamic profile
  expression level of FOXA2: 5000

## Cc1nn(-c2ccccc2)c(C)c1/C=N/N1CCN(Cc2ccccc2)CC1 [SANT-1]
[2]; [12]
  factor contribution: 9.9

## CCOC(=O)C1=C(N)Oc2ccc(Cl)cc2C1C(C#N)C(=O)OCC (stereo not shown) [SC79]
[1]; [7]
  factor contribution: 7.3

## C/C(=C\c1ccc(C(=O)O)cc1)c1ccc2c(c1)C(C)(C)CCC2(C)C [TTNPB]
[1]
  impact on expression of LMX1A: positive impact
[1]; [7]
  factor contribution: 19.5
[1]; [5]
  factor contribution: 10.7
[1]; [6]
  GBX2 expression in absence of the factor: rise
  value of FOXA2 in absence of the factor: 0
  value of LMX1A in absence of the factor: 15,000
[2]; [10]
  factor contribution: 15.5
[2]; [13]
  factor contribution: 9.5

## Oc1nc(-c2ccc(C(F)(F)F)cc2)nc2c1CSCC2 [XAV939]
[2]; [12]
  factor contribution: 13.5
[2]; [10]
  factor contribution: 11.2
[2]; [13]
  factor contribution: 10.8
